Measured values reported in patent EP4711356A1, “TETRAHYDROCARBAZOLE DERIVATIVE, PHARMACEUTICAL COMPOSITION, AND USE THEREOF” (Nain Biotech (Hangzhou) Co., Ltd., priority 2023, dated 2024).

Test system: HeLa cells
Assay: Cell-based pharmacodynamic assay (CellTiter-Glo proliferation inhibition), HeLa
Conditions: human cervical cancer HeLa cells; 72 hours incubation; CellTiter-Glo luminescence; read-out: IC50 against HeLa cells
Protocol: Complete media such as RPMI 1640 (Gibco, A1049101), EMEM (ATCC, 30-2003), DMEM (Gibco, C11995500CP), McCoy's 5A (Gibco, 16600082), and F-12K (ATCC, 30-2004) were prepared by supplementing with varying concentrations of FBS (Biological Industries, 04-002-1A) and 1% Penicillin-Streptomycin (Gibco, 15140122) and was thoroughly mixed. Tumor cell lines including HeLa (ATCC, CCL-2; EMEM + 10% FBS), TOV-21G (Cobioer, CBP60292; 1:1 mixture of MCDB 105 and Medium 199 + 15% FBS), OVCAR-3 (ATCC, HTB-161; RPMI 1640 + 20% FBS + 0.01 mg/ml bovine insulin), SK-OV-3 (ATCC, HTB-77; McCoy's 5A + 10% FBS), A2780 (Cobioer, CBP60283; RPMI 1640 + 10% FBS), OC316 (Cobioer, CBP60620; RPMI 1640 + 10% FBS), HuH-7 (Cobioer, CBP60202; DMEM + 10% FBS), SNU-398 (ATCC, CRL-2233; RPMI 1640 + 10% FBS), NCI-H2286 (ATCC, CRL-5938; RPMI 1640 + 5% FBS), NCI-H82 (ATCC, HTB-175; RPMI 1640 + 10% FBS), A549 (ATCC, CCL-185; F-12K + 10% FBS), SK-MEL-3 (ATCC, HTB-69; McCoy's 5A + 15% FBS), PSN-1 (Cobioer, CBP61215; RPMI 1640 + 10% FBS), LoVo (ATCC, CCL-229; F-12K + 10% FBS), DLD-1 (ATCC, CCL-221; RPMI 1640 + 10% FBS), HCT-15 (ATCC, CCL-225; RPMI 1640 + 10% FBS), A498 (ATCC, HTB-44; EMEM + 10% FBS), LNCaP (ATCC, CRL-1740; RPMI 1640 + 10% FBS), SNU-1 (ATCC, CRL-5971; RPMI 1640 + 10% FBS), SCC-9 (Cobioer, CBP60428; DMEM/F12 (1:1) + 10% FBS + 0.5 mM sodium pyruvate + 400 ng/ml hydrocortisone), SU-DHL-5 (ATCC, CRL-2958; RPMI 1640 + 10% FBS), Toledo (ATCC, CRL-2631; RPMI 1640 + 10% FBS), and SJCRH30 (ATCC, CRL-2061; RPMI 1640 + 10% FBS) were thawed. Cells were passaged approximately twice, and those in good growth condition (typically passages 4-6) were selected for experiments. The medium was aspirated, and the cells were washed once with 0.25% trypsin (Invitrogen, 25200-072). The waste liquid was discarded, and 3 mL of fresh trypsin was added to the culture flask for digestion. When the cells began to detach, 9 mL of complete medium was added to neutralize the trypsin digestion, and the mixture was gently mixed. The cell suspension was transferred to a centrifuge tube using a pipette and centrifuged at 1000 rpm for 5 minutes. The supernatant was discarded, and 5 mL of medium was added to the centrifuge tube to gently resuspend the cells evenly. The cell concentration was adjusted to 1×10^4/mL-3×10^4/mL using a cell counter (Beckman Coulter, Vi-cellTM XR). The cell suspension was added to a 96-well plate (Corning, 3903) at 100 µL/well. The plate was labeled with details such as cell name, seeding density, and date, and then placed in a CO2 incubator (Thermo, Thermo 3111) overnight. Test compounds were prepared as 20 mM stock solutions in DMSO (Sigma, D4540-1L) and added to the corresponding cell wells using an HPD300 automated dispenser according to the designed layout. The plates were incubated in a 37°C, 5% CO2 incubator for 72 hours. CellTiter-Glo Buffer was thawed at room temperature. The lyophilized CellTiter-Glo substrate was equilibrated to room temperature. The CellTiter-Glo Buffer was added to the CellTiter-Glo substrate and thoroughly mixed. The cell plates were removed and equilibrated to room temperature, and 50 µL of the mixed CellTiter-Glo reagent was added to each well. The plates were protected from light and shaken for 10 minutes, followed by incubation for 10 minutes. The plates were placed in an Enspire reader (luminescence measurement time: 0.5 s) to record luminescence results. The inhibition rate was calculated using the following formula: Inhibition rate (%) = (1 - (RLU_compound - RLU_blank) / (RLU_DMSO - RLU_blank)) × 100%. Dose-response curves were plotted using XLFit to calculate IC50 values. A four-parameter model was used: [fit = (A + ((B - A) / (1 + ((C/x) ^ D)))]. The test results for HeLa cells are shown in Table 1. Table 1: IC50 values of some test compounds against human cervical cancer HeLa cells

Compound | IC50 [nM]
O=C1CCCc2c1[nH]c1cccc(C(=O)Oc3cccc4[nH]ncc34)c21 [Compound B166] | ≤ 500
Cc1ccc2[nH]c3c(c2c1)CCCC3=NC(CO)C(C)C (racemic) [Compound E02] | ≤ 500
O=C1CCCc2c1[nH]c1cccc(C(=O)OCc3ccccc3)c21 [Compound B34] | ≤ 500
CCC(CO)N=C1CCCc2c1[nH]c1ccc(C)cc21 (stereo not drawn) [Compound E64] | ≤ 500
CC(O)c1cccc2[nH]c3c(c12)CCCC3=O (stereo not drawn) [Compound B105] | ≤ 500
Cc1ccc2[nH]c3c(c2c1)CCCC3=NCC(O)CO (racemic) [Compound E01] | ≤ 500
CCCCNC1CCc2c([nH]c3cccc(C(=O)OCC)c23)C1=O (racemic) [Compound B103] | ≤ 200
COc1ccc2[nH]c3c(c2n1)CCCC3=O [Compound B09] | ≤ 200
COc1ccc2[nH]c3c(c2n1)CCCC3=NCCO [Compound E37] | ≤ 200
CC(C)OC(=O)c1cccc2[nH]c3c(c12)CCCC3=O [Compound B17] | ≤ 200
C#Cc1ccc2[nH]c3c(c2c1C(=O)OCC)CCCC3=O [Compound B153] | ≤ 200
Cc1ccc2[nH]c3c(c2c1)CCCC3=NC1CC(C(N)=O)C1 (stereo not drawn) [Compound E09] | ≤ 500
[2H]C([2H])([2H])c1ccc2[nH]c3c(c2c1)CCCC3=NCC(=O)OC(C)(C)C [Compound E32] | ≤ 200
CCCCCC(=O)n1c2c(c3c(-c4cnn(C(C)C)c4)cccc31)CCCC2=O [Compound C52] | ≤ 200
COC(=O)c1cccc2[nH]c3c(c12)CCCC3=NC1CCN(C)CC1 [Compound E62] | ≤ 200
Cc1noc(-c2cccc3[nH]c4c(c23)CCCC4=O)n1 [Compound B69] | ≤ 200
CCOC(=O)c1cccc2c1c1c(n2C(=O)C2(c3ccc4c(c3)OC(F)(F)O4)CC2)C(=O)CCC1 [Compound C36] | ≤ 200
Cn1cc(-c2cccc3[nH]c4c(c23)CCCC4=O)cn1 [Compound B154] | ≤ 200
[2H]C([2H])([2H])C([2H])([2H])OC(=O)c1cccc2[nH]c3c(c12)CCCC3=O [Compound B116] | ≤ 200
O=C1CCCc2c1[nH]c1cccc(N3CC[C@@H](CO)C3)c21 [Compound B193] | ≤ 200

Compound | IC50 [nM]
O=C1CCCc2c1[nH]c1cccc(C(=O)OC3CCC(O)CC3)c21 (stereo not drawn) [Compound B130] | ≤ 200
CCOC(=O)c1cccc2c1c1c(n2C(=O)CC2CCOCC2)C(=O)CCC1 [Compound C35] | ≤ 200
CCC(OC(=O)c1cccc2[nH]c3c(c12)CCCC3=O)C1CC1 (racemic) [Compound B138] | ≤ 500
O=C1CCCc2c1[nH]c1cccc(C(=O)OC(CF)CF)c21 [Compound B42] | ≤ 200
Cc1ccc2[nH]c3c(c2n1)CCCC3=O [Compound B01] | ≤ 200
O=C1CCCc2c1[nH]c1cccc(C(=O)OCC3CC3)c21 [Compound B41] | ≤ 200
O=C1CCCc2c1[nH]c1cccc(C(=O)OCc3ccc(F)cc3)c21 [Compound B43] | ≤ 500
COC(=O)c1cccc2[nH]c3c(c12)CCCC3=NCC(O)CO (racemic) [Compound E59] | ≤ 200
C#CCC(C)OC(=O)c1cccc2[nH]c3c(c12)CCCC3=O (racemic) [Compound B114] | ≤ 200
CCOC(=O)c1cccc2c1c1c(n2C(=O)c2ccc(F)cc2)C(=O)CCC1 [Compound C19] | ≤ 200
COC(=O)c1c(C)ccc2[nH]c3c(c12)CCCC3=O [Compound B87] | ≤ 200
CC1(COC(=O)c2cccc3[nH]c4c(c23)CCCC4=O)COC1 [Compound B140] | ≤ 200
COC(=O)c1c(F)ccc2[nH]c3c(c12)CCCC3=O [Compound B85] | ≤ 200
O=C1CCCc2c1[nH]c1cccc(N3CCO[C@H](CO)C3)c21 [Compound B194] | ≤ 200
CS(C)(=O)=Nc1cccc2[nH]c3c(c12)CCCC3=O [Compound B80] | ≤ 500
CC(O)CCCOC(=O)c1cccc2[nH]c3c(c12)CCCC3=O (racemic) [Compound B142] | ≤ 200
COC(=O)c1ccc2[nH]c3c(c2c1)CCCC3=NCCO [Compound E36] | ≤ 200
Cc1ccc2[nH]c3c(c2c1)CCC1(CC1)C3=O [Compound B14] | ≥ 5000
Cc1ccc2[nH]c3c(c2c1)CCCC3=NC1CCN(CC(F)(F)F)CC1C (stereo not drawn) [Compound E65] | ≤ 200
N#CC1(COC(=O)c2cccc3[nH]c4c(c23)CCCC4=O)CC1 [Compound B175] | ≤ 500

Continued, values first:

IC50 [nM] | Compound
≤ 200 | CCCCCOC(=O)n1c2c(c3c(C(=O)OCC)cccc31)CCCC2=O [Compound C16]
≤ 200 | CCOC(=O)c1cccc2c1c1c(n2C(=O)C2(C)CC2(F)F)C(=O)CCC1 (racemic) [Compound C28]
≤ 200 | CCOC(=O)c1cccc2c1c1c(n2C(=O)c2ccc(Cl)cc2)C(=O)CCC1 [Compound C20]
≤ 200 | COC(=O)c1cccc2[nH]c3c(c12)CCCC3=NC(C)C(F)(F)F (stereo not drawn) [Compound E69]
≤ 200 | O=C1CCCc2c1[nH]c1cccc(C(=O)OC3CCC34CC4)c21 (racemic) [Compound B136]
≤ 200 | Cc1cc(COC(=O)c2cccc3[nH]c4c(c23)CCCC4=O)n[nH]1 [Compound B163]
≤ 200 | CCOC(=O)c1cccc2c1c1c(n2C(=O)/C=C/c2ccc(OC)c(OC)c2)C(=O)CCC1 [Compound C59]
≤ 200 | Cc1cccc2[nH]c3c(c12)CCCC3=NCC(=O)OC(C)(C)C [Compound E52]
≤ 200 | CCOC(=O)c1cccc2c1c1c(n2C(=O)CN2CCN(C)CC2)C(=O)CCC1 [Compound C34]
≤ 200 | O=C1CCCc2c1[nH]c1cccc(C(=O)OC3CCC3)c21 [Compound B95]
≤ 200 | COC(=O)c1cccc2c1c1c(n2C(C)=O)C(=O)CCC1 [Compound C01]
≤ 200 | CS(=O)(=O)c1cccc2[nH]c3c(c12)CCCC3=O [Compound B74]
≤ 200 | CC(C)(C)OC(=O)c1cccc2[nH]c3c(c12)CCCC3=O [Compound B55]
≤ 200 | [2H]C([2H])([2H])c1ccc2[nH]c3c(c2c1)CCCC3=O [Compound B15]
≤ 200 | CCOC(=O)c1cccc2c1c1c(n2C(=O)c2ccccc2OC)C(=O)CCC1 [Compound C25]
≤ 200 | CCOC(=O)c1cccc2c1c1c(n2C(=O)c2ccc(OC)cc2)C(=O)CCC1 [Compound C21]
≤ 200 | COC(=O)c1cccc2[nH]c3c(c12)CCC3=O [Compound B51]
≤ 200 | Cc1ccc2[nH]c3c(c2c1)CCCC3=NC(CC(N)=O)C(=O)OC(C)(C)C (stereo not drawn) [Compound E39]
≤ 200 | O=C1CCCc2c1[nH]c1cccc(C(=O)OCC(F)(F)F)c21 [Compound B46]
≤ 200 | CCOC(=O)c1cccc2c1c1c(n2C(=O)C2CCN(C)CC2)C(=O)CCC1 [Compound C24]
